Source: article PMC6270601, “Dimeric Labdane Diterpenes: Synthesis and Antiproliferative Effects” (Molecules, 2013)

Columns and labels:
MRC-5 normal fibroblasts = assay: Antiproliferative assay (MTT reduction), MRC-5 normal lung fibroblasts; assay type: cell-based, human; settings: Homo sapiens, MRC5, 72 h; MRC-5 normal fibroblasts; 3 days treatment, MTT reduction; mean ± SD; >100 µM considered inactive
Method: (§1) All human cell lines used in this work were purchased from the American Type Culture Collection (ATCC, Manasas, VA, USA). […] Promyelocytic leukemia HL-60 cells (CCL-240) were grown in suspension in RPM1 medium containing 1 mM sodium pyruvate and 2.0 g/L sodium bicarbonate. All media were supplemented with 10% heat-inactivated FBS, 100 IU/mL penicillin and 100 µg/mL streptomycin. Cells were grown in a humidified incubator with 5% CO2 in air at 37 °C. For the antiproliferative assay, adherent cells were plated at a density of 5 × 10^4 cells/mL and HL-60 cells at 30 × 10^4 cells/mL. Cells were seeded in 96-well plates (100 µL/well). One day after seeding, cells were treated with medium containing the compounds at concentrations ranging from 0 up to 100 µM during 3 days. The compounds were dissolved in DMSO (1% final concentration) and complete medium. Untreated cells (medium containing 1% DMSO) were used as 100% viability controls. […] Each concentration was tested in sextuplicate and experiments were repeated 2 times. Cell viability was determined by means of the MTT reduction assay at the end of the incubation with the products.

AGS cells = assay: Antiproliferative assay (MTT reduction), AGS gastric adenocarcinoma cells; assay type: cell-based, human; settings: Homo sapiens, 72 h; AGS gastric adenocarcinoma; 3 days treatment, MTT reduction; mean ± SD; >100 µM considered inactive
Method: (§2) The compounds 1–20 were assessed for antiproliferative effect towards human lung fibroblasts (MRC-5) and the following human tumor cell lines: gastric adenocarcinoma (AGS), lung cancer cells (SK-MES-1), bladder carcinoma (J82) and promyelocytic leukemia (HL-60).
(§3) All human cell lines used in this work were purchased from the American Type Culture Collection (ATCC, Manasas, VA, USA). Normal lung MRC-5 fibroblasts (CCL-171), SK-MES-1 lung cancer cells (HTB-58) and J82 bladder carcinoma cells (HTB-1) were grown as monolayers in minimum essential Eagle medium (MEM) with Earles’s salts, 2 mM L-glutamine and 1.5 g/L sodium bicarbonate. Gastric adenocarcinoma AGS cells (CRL-1739) were grown as monolayers in Ham F-12 medium containing 1 mM L-glutamine and 1.5 g/L sodium bicarbonate. Promyelocytic leukemia HL-60 cells (CCL-240) were grown in suspension in RPM1 medium containing 1 mM sodium pyruvate and 2.0 g/L sodium bicarbonate. All media were supplemented with 10% heat-inactivated FBS, 100 IU/mL penicillin and 100 µg/mL streptomycin. Cells were grown in a humidified incubator with 5% CO2 in air at 37 °C. For the antiproliferative assay, adherent cells were plated at a density of 5 × 10^4 cells/mL and HL-60 cells at 30 × 10^4 cells/mL. Cells were seeded in 96-well plates (100 µL/well). One day after seeding, cells were treated with medium containing the compounds at concentrations ranging from 0 up to 100 µM during 3 days. The compounds were dissolved in DMSO (1% final concentration) and complete medium. Untreated cells (medium containing 1% DMSO) were used as 100% viability controls. […] Each concentration was tested in sextuplicate and experiments were repeated 2 times. Cell viability was determined by means of the MTT reduction assay at the end of the incubation with the products. The results were transformed to percentage of controls and the IC50 values were graphically obtained from the dose-response curves.

[1] = tested on: SK-MES-1 lung cancer cells; assay: Antiproliferative assay (MTT reduction), SK-MES-1 lung cancer cells; assay type: cell-based, human; settings: Homo sapiens, 72 h; SK-MES-1 lung cancer cells; 3 days treatment, MTT reduction; mean ± SD; >100 µM considered inactive
Method: as §1

[2] = tested on: J82 bladder carcinoma cells; assay: Antiproliferative assay (MTT reduction), J82 bladder carcinoma cells; assay type: cell-based, human; settings: Homo sapiens, 72 h; J82 bladder carcinoma; 3 days treatment, MTT reduction; mean ± SD; >100 µM considered inactive
Method: as §1

HL-60 cells = assay: Antiproliferative assay (MTT reduction), HL-60 promyelocytic leukemia cells; assay type: cell-based, human; settings: Homo sapiens, 72 h; HL-60 promyelocytic leukemia; 3 days treatment, MTT reduction; mean ± SD; >100 µM considered inactive
Method: as §1

[3] = tested on: MRC-5, AGS, SK-MES-1, J82 and HL-60 cell lines; assay: Antiproliferative assay, panel of five human cell lines (summary in words); assay type: cell-based; settings: SK-MES-1, J82, HL-60, up to 100 µM
Method: as §2, §3

SMILES | IC50 (MRC-5 normal fibroblasts) | IC50 (AGS cells) | IC50 [1] | IC50 [2] | IC50 (HL-60 cells) | antiproliferative effect on the five cell lines (in words) [3]
C=C1CCC2[C@](C)(CCC[C@]2(C)C(=O)O)[C@H]1CC[C@@H](C)CCOC(=O)CCc1cn(CC[C@H](C)CC[C@H]2C(=C)CCC3[C@]2(C)CCC[C@]3(C)C(=O)OC)nn1 (stereo partly drawn) [Compound 19] | > 100 µM | > 100 µM | > 100 µM | > 100 µM | 42.4 ± 2.5 µM | no antiproliferative effect on any of the cell lines, except on HL-60
C=C1CCC2[C@](C)(CCC[C@]2(C)C(=O)OC)[C@H]1CC[C@@H](C)CCn1cc(CCC(=O)OCC[C@H](C)CC[C@H]2C(=C)CCC3[C@]2(C)CCC[C@]3(C)C(=O)OC)nn1 (stereo partly drawn) [Compound 20] | > 100 µM | > 100 µM | > 100 µM | > 100 µM | > 100 µM | no antiproliferative effect on any of the cell lines
